US7910600B2, “Therapeutic kinase modulators” (Cylene Pharmaceuticals, Inc., priority 2007, dated 2011)

What follows are compounds tested on MiaPaca human pancreatic carcinoma cells (assay: Cell proliferation assay (Alamar Blue), MiaPaCa). Settings: MIA PaCa-2, MiaPaCa cell line.
Format: cell-based
Experimental: (§1) A representative cell-proliferation assay protocol using Alamar Blue dye (stored at 4° C., use 20 ul per well) is described hereafter.
(§2) 96-Well Plate Setup and Compound Treatment
(§3) • a. Split and trypsinize cells. • b. Count cells using hemocytometer. • c. Plate 4,000-5,000 cells per well in 100 μl of medium and seed into a 96-well plate according to the following plate layout. Add cell culture medium only to wells B10 to B12. Wells B1 to B9 have cells but no compound added.
(§4) • d. Add 100 μl of 2× drug dilution to each well in a concentration shown in the plate layout above. At the same time, add 100 μl of media into the control wells (wells B10 to B12). Total volume is 200 μl/well. • e. Incubate four (4) days at 37° C., 5% CO2 in a humidified incubator. • f. Add 20 μl Alamar Blue reagent to each well. • g. Incubate for four (4) hours at 37° C., 5% CO2 in a humidified incubator. • h. Record fluorescence at an excitation wavelength of 544 nm and emission wavelength of 590 nm using a microplate reader.
(§5) In the assays, cells are cultured with a test compound for approximately four days, the dye is then added to the cells and fluorescence of […] dye is detected after approximately four hours. Different types of cells can be utilized in the assays (e.g., HCT-116 human colorectal carcinoma cells, PC-3 human prostatic cancer cells and MiaPaca human pancreatic carcinoma cells).

Row | IC50 [µM] | Compound
1 | > 10 | O=C(O)c1ccc2c(c1)nc(-c1cccc(Cl)c1)c1ccncc12
2 | 2.8 | Cn1cc(-c2nc3cc(C(=O)NC4CC4)ccc3c3cnc(NC4CC4)nc23)cn1
3 | > 62.5 | COC(=O)c1ccc2c(c1)nc(-c1cnn(C)c1)c1nc(SC)ncc12 [Methyl 5-(1-methyl-1H-pyrazol-4-yl)-3-(methylthio)pyrimido[4,5-c]quinoline-8-carboxylate]
4 | > 10 | O=C(O)c1ccc2c(c1)nc(-c1ccc(Cl)cc1)c1ccncc12
5 | > 10 | O=C(O)c1ccc2c(c1)nc(-c1ccsc1)c1ccncc12
6 | > 10 | CN1CCN(C(=O)c2ccc3c(c2)nc(-c2cccc(N)c2)c2ccncc23)CC1
7 | 3.7 | O=C(O)c1ccc2c(c1)nc(-c1ccccc1)c1nc(NC3CC3)ncc12 [3-(cyclopropylamino)-5-phenylpyrimido[4,5-c]quinoline-8-carboxylic acid]

Each compound was assayed on BxPC3 (assay: Cell proliferation assay (Alamar Blue), BxPC3). Settings: Homo sapiens, BXPC-3; BxPC3 cell line; read-out: Bx-PC3.
Format: cell-based
Experimental: as §1, §2, §3, §4, §5

Row | IC50 [µM] | Compound
8 | > 10 | O=C(O)c1ccc2c(c1)nc(-c1cccc(Cl)c1)c1ccncc12
9 | 5.9 | Cn1cc(-c2nc3cc(C(=O)NC4CC4)ccc3c3cnc(NC4CC4)nc23)cn1
10 | > 62.5 | COC(=O)c1ccc2c(c1)nc(-c1cnn(C)c1)c1nc(SC)ncc12 [Methyl 5-(1-methyl-1H-pyrazol-4-yl)-3-(methylthio)pyrimido[4,5-c]quinoline-8-carboxylate]
11 | > 10 | O=C(O)c1ccc2c(c1)nc(-c1ccc(Cl)cc1)c1ccncc12
12 | > 10 | O=C(O)c1ccc2c(c1)nc(-c1ccsc1)c1ccncc12
13 | 4.5 | O=C(O)c1ccc2c(c1)nc(-c1ccccc1)c1nc(NC3CC3)ncc12 [3-(cyclopropylamino)-5-phenylpyrimido[4,5-c]quinoline-8-carboxylic acid]

What follows are compounds tested on HCT-116 human colorectal carcinoma cells (assay: Cell proliferation assay (Alamar Blue), HCT-116). Settings: HCT-116 cell line.
Format: cell-based
Experimental: as §1, §2, §3, §4, §5

Row | IC50 [µM] | Compound
14 | > 10 | O=C(O)c1ccc2c(c1)nc(-c1cccc(Cl)c1)c1ccncc12
15 | 4.3 | Cn1cc(-c2nc3cc(C(=O)NC4CC4)ccc3c3cnc(NC4CC4)nc23)cn1
16 | > 10 | COC(=O)c1ccc2c(c1)nc(-c1cnn(C)c1)c1nc(SC)ncc12 [Methyl 5-(1-methyl-1H-pyrazol-4-yl)-3-(methylthio)pyrimido[4,5-c]quinoline-8-carboxylate]
17 | > 10 | O=C(O)c1ccc2c(c1)nc(-c1ccc(Cl)cc1)c1ccncc12
18 | > 30 | O=C(O)c1ccc2c(c1)nc(-c1ccsc1)c1ccncc12
19 | > 10 | CN1CCN(C(=O)c2ccc3c(c2)nc(-c2cccc(N)c2)c2ccncc23)CC1
20 | 2.9 | O=C(O)c1ccc2c(c1)nc(-c1ccccc1)c1nc(NC3CC3)ncc12 [3-(cyclopropylamino)-5-phenylpyrimido[4,5-c]quinoline-8-carboxylic acid]

Each compound was assayed on PC-3 human prostatic cancer cells (assay: Cell proliferation assay (Alamar Blue), PC3). Settings: PC3 cell line.
Format: cell-based
Experimental: as §1, §2, §3, §4, §5

Row | IC50 [µM] | Compound
21 | > 10 | O=C(O)c1ccc2c(c1)nc(-c1cccc(Cl)c1)c1ccncc12
22 | > 10 | O=C(O)c1ccc2c(c1)nc(-c1ccc(Cl)cc1)c1ccncc12
23 | > 10 | O=C(O)c1ccc2c(c1)nc(-c1ccsc1)c1ccncc12
24 | > 10 | CN1CCN(C(=O)c2ccc3c(c2)nc(-c2cccc(N)c2)c2ccncc23)CC1

These compounds were tested against T1, recombinant human CK2 (Homo sapiens, UniProt P68400) (assay: Cell-free CK2 assay). Settings: not given.
T1 construct: purchased Upstate
T1 sequence (P68400 whole entry): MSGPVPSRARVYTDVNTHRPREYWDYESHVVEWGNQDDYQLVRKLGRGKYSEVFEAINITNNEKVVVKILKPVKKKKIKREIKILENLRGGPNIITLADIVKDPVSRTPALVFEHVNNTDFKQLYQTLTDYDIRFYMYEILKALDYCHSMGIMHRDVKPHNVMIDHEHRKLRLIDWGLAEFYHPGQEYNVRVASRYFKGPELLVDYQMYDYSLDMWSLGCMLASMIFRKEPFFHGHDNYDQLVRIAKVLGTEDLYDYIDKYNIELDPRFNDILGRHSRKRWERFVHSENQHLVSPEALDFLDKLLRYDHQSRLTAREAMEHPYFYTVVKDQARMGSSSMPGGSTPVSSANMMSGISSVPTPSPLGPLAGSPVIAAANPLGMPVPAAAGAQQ
T1 sequence (P67870 whole entry partner): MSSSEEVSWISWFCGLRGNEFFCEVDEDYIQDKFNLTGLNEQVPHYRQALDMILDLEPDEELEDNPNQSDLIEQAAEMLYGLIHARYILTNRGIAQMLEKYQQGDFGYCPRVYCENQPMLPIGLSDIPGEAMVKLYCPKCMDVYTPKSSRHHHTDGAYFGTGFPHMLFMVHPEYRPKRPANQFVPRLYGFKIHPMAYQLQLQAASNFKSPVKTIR
Format: biochemical
Experimental: Modulatory activity of compounds described herein is assessed in vitro in cell-free CK2 assays. These assays are described hereafter.
Test compounds in aqueous solution are added at a volume of 10 microliters, to a reaction mixture comprising 10 microliters Assay Dilution Buffer (ADB; 20mM MOPS, pH 7.2, 25 mM beta-glycerolphosphate, 5 mM EGTA, 1 mM sodium orthovanadate and 1 mM dithiothreitol), 10 microliters of substrate peptide (RRRDDDSDDD (SEQ ID NO:4), dissolved in ADB at a concentration of 1 mM), 10 microliters of recombinant human CK2 (25 ng dissolved in ADB; Upstate). Reactions are initiated by the addition of 10 microliters of ATP Solution (90% 75 mM MgC12, 75 micromolar ATP dissolved in ADB; 10% [γ-^33P]ATP (stock 1 mCi/100 μl; 3000 Ci/mmol (Perkin Elmer) and maintained for 10 minutes at 30 degrees C. The reactions are quenched with 100 microliters of 0.75% phosphoric acid, then transferred to and filtered through a phosphocellulose filter plate (Millipore). After washing each well 5 times with 0.75% phosphoric acid, the plate is dried under vacuum for 5 min and, following the addition of 15 ul of scintillation fluid to each well, the residual radioactivity is measured using a Wallac […].

Row | IC50 [µM] | Compound
25 | 0.03 | O=C(O)c1ccc2c(c1)nc(-c1cccc(Cl)c1)c1ccncc12
26 | 0.007 | O=C(O)c1ccc2c(c1)nc(-c1ccc(Cl)cc1)c1ccncc12
27 | 0.004 | O=C(O)c1ccc2c(c1)nc(-c1ccsc1)c1ccncc12
28 | 0.093 | O=C(O)c1ccc2c(c1)nc(-c1ccccc1)c1nc(NC3CC3)ncc12 [3-(cyclopropylamino)-5-phenylpyrimido[4,5-c]quinoline-8-carboxylic acid]

Same assay, conditions: read-out: CK2: % inh 500 nM

Row | inhibition at 0.5 µM [%] | Compound
29 | 95 | O=C(O)c1ccc2c(c1)nc(-c1cccc(Cl)c1)c1ccncc12
30 | 0 | Cn1cc(-c2nc3cc(C(=O)NC4CC4)ccc3c3cnc(NC4CC4)nc23)cn1
31 | 68 | COC(=O)c1ccc2c(c1)nc(-c1cnn(C)c1)c1nc(SC)ncc12 [Methyl 5-(1-methyl-1H-pyrazol-4-yl)-3-(methylthio)pyrimido[4,5-c]quinoline-8-carboxylate]
32 | 98 | O=C(O)c1ccc2c(c1)nc(-c1ccc(Cl)cc1)c1ccncc12
33 | 98 | O=C(O)c1ccc2c(c1)nc(-c1ccsc1)c1ccncc12
34 | 19 | CN1CCN(C(=O)c2ccc3c(c2)nc(-c2cccc(N)c2)c2ccncc23)CC1
35 | 99 | O=C(O)c1ccc2c(c1)nc(-c1ccccc1)c1nc(NC3CC3)ncc12 [3-(cyclopropylamino)-5-phenylpyrimido[4,5-c]quinoline-8-carboxylic acid]

What follows are compounds tested on MV-4-11 (assay: Cell proliferation assay (Alamar Blue), MV-4-11). Settings: Homo sapiens, MV4-11; MV-4-11 cell line.
Format: cell-based
Experimental: as §1, §2, §3, §4, §5

Row | IC50 [µM] | Compound
36 | > 10 | O=C(O)c1ccc2c(c1)nc(-c1cccc(Cl)c1)c1ccncc12
37 | > 10 | O=C(O)c1ccc2c(c1)nc(-c1ccc(Cl)cc1)c1ccncc12
38 | 13.3 | O=C(O)c1ccc2c(c1)nc(-c1ccsc1)c1ccncc12
39 | > 10 | CN1CCN(C(=O)c2ccc3c(c2)nc(-c2cccc(N)c2)c2ccncc23)CC1

Each compound was assayed on PanC1 (assay: Cell proliferation assay (Alamar Blue), PanC1). Settings: Homo sapiens, PANC-1; PanC1 cell line.
Format: cell-based
Experimental: as §1, §2, §3, §4, §5

Row | IC50 [µM] | Compound
40 | > 30 | Cn1cc(-c2nc3cc(C(=O)NC4CC4)ccc3c3cnc(NC4CC4)nc23)cn1
41 | > 62.5 | COC(=O)c1ccc2c(c1)nc(-c1cnn(C)c1)c1nc(SC)ncc12 [Methyl 5-(1-methyl-1H-pyrazol-4-yl)-3-(methylthio)pyrimido[4,5-c]quinoline-8-carboxylate]
42 | 15.9 | O=C(O)c1ccc2c(c1)nc(-c1ccccc1)c1nc(NC3CC3)ncc12 [3-(cyclopropylamino)-5-phenylpyrimido[4,5-c]quinoline-8-carboxylic acid]

These compounds were tested on Jurkat (assay: Cell proliferation assay (Alamar Blue), Jurkat). Settings: Homo sapiens; Jurkat cell line.
Format: cell-based
Experimental: as §1, §2, §3, §4, §5

Row | IC50 [µM] | Compound
43 | 1.6 | Cn1cc(-c2nc3cc(C(=O)NC4CC4)ccc3c3cnc(NC4CC4)nc23)cn1
44 | 47.6 | COC(=O)c1ccc2c(c1)nc(-c1cnn(C)c1)c1nc(SC)ncc12 [Methyl 5-(1-methyl-1H-pyrazol-4-yl)-3-(methylthio)pyrimido[4,5-c]quinoline-8-carboxylate]
45 | 1.5 | O=C(O)c1ccc2c(c1)nc(-c1ccccc1)c1nc(NC3CC3)ncc12 [3-(cyclopropylamino)-5-phenylpyrimido[4,5-c]quinoline-8-carboxylic acid]

The compounds below were run on MDA-MB231 (assay: Cell proliferation assay (Alamar Blue), MDA-MB231). Settings: Homo sapiens, MDA-MB-231; MDA-MB231 cell line.
Format: cell-based
Experimental: as §1, §2, §3, §4, §5

Row | IC50 [µM] | Compound
46 | > 10 | O=C(O)c1ccc2c(c1)nc(-c1cccc(Cl)c1)c1ccncc12
47 | > 30 | Cn1cc(-c2nc3cc(C(=O)NC4CC4)ccc3c3cnc(NC4CC4)nc23)cn1
48 | > 62.5 | COC(=O)c1ccc2c(c1)nc(-c1cnn(C)c1)c1nc(SC)ncc12 [Methyl 5-(1-methyl-1H-pyrazol-4-yl)-3-(methylthio)pyrimido[4,5-c]quinoline-8-carboxylate]
49 | > 10 | O=C(O)c1ccc2c(c1)nc(-c1ccc(Cl)cc1)c1ccncc12
50 | > 10 | O=C(O)c1ccc2c(c1)nc(-c1ccsc1)c1ccncc12
51 | 11.1 | O=C(O)c1ccc2c(c1)nc(-c1ccccc1)c1nc(NC3CC3)ncc12 [3-(cyclopropylamino)-5-phenylpyrimido[4,5-c]quinoline-8-carboxylic acid]

Each compound was assayed on K562 (assay: Cell proliferation assay (Alamar Blue), K562). Settings: Homo sapiens; K562 cell line.
Format: cell-based
Experimental: as §1, §2, §3, §4, §5

Row | IC50 [µM] | Compound
52 | 0.9 | O=C(O)c1ccc2c(c1)nc(-c1cccc(Cl)c1)c1ccncc12
53 | > 10 | O=C(O)c1ccc2c(c1)nc(-c1ccc(Cl)cc1)c1ccncc12
54 | 0.2 | O=C(O)c1ccc2c(c1)nc(-c1ccsc1)c1ccncc12
55 | > 10 | CN1CCN(C(=O)c2ccc3c(c2)nc(-c2cccc(N)c2)c2ccncc23)CC1
